Experimental data reported in EPA's CvTdb concentration-time database.

Legend:
[1] = tested on: Rat; assay: concentration in plasma after dosing; conditions: 1 h; dosed: Potassium Perfluorobutane Sulfonate; 4 mg/kg; iv; Male; F344
[2] = tested on: Rat; assay: concentration in plasma after dosing; conditions: 1.5 h; dosed: Potassium Perfluorobutane Sulfonate; 4 mg/kg; iv; Male; F344
[3] = tested on: Rat; assay: concentration in brain after dosing; conditions: 0.5 h; dosed: Potassium Perfluorobutane Sulfonate; 20 mg/kg; oral; Female; Harlan Sprague Dawley
[4] = tested on: Rat; assay: concentration in kidney after dosing; conditions: 3 h; dosed: Potassium Perfluorobutane Sulfonate; 20 mg/kg; oral; Male; Harlan Sprague Dawley
[5] = tested on: Rat; assay: concentration in plasma after dosing; conditions: dosed: Nitrite, 80 mg/kg, oral, Female, F344
[6] = tested on: Rat; assay: concentration in plasma after dosing; conditions: dosed: Nitrite, 80 mg/kg, oral, Female, F344; remark: listed apart in the source
[7] = tested on: Rat; assay: concentration in plasma after dosing; conditions: dosed: Nitrite, 20 mg/kg, iv, Male, F344
[8] = tested on: Rat; assay: concentration in plasma after dosing; conditions: 10 min; dosed: Nitrite; 40 mg/kg; oral; Female; F344
[9] = tested on: Mouse; assay: concentration in plasma after dosing; conditions: 2 h; dosed: 2-Hydroxy-4-methoxybenzophenone; 500 mg/kg; oral; Female; B6C3F1
[10] = tested on: Rat; assay: concentration in plasma after dosing; conditions: dosed: 2-Hydroxy-4-methoxybenzophenone, 8 mg/kg, iv, Male, F344
[11] = tested on: Mouse; assay: concentration in plasma after dosing; conditions: 10 min; dosed: 2-Hydroxy-4-methoxybenzophenone; 50 mg/kg; iv; Male; B6C3F1
[12] = tested on: Rat; assay: concentration in kidney after dosing; conditions: 6 h; dosed: Perfluorooctanoic acid; 80 mg/kg; oral; Female; Harlan Sprague Dawley
[13] = tested on: Rat; assay: concentration in plasma after dosing; conditions: dosed: Fluorotelomer alcohol 8+2, 12 mg/kg, oral, Male, Harlan Sprague Dawley
[14] = tested on: Rat; assay: concentration in kidney after dosing; conditions: 48 h; dosed: Perfluorooctanoic acid; 80 mg/kg; oral; Female; Harlan Sprague Dawley
[15] = tested on: Rat; assay: concentration in kidney after dosing; conditions: 12 h; dosed: Fluorotelomer alcohol 8+2; 24 mg/kg; oral; Male; Harlan Sprague Dawley
[16] = tested on: Rat; assay: concentration in plasma after dosing; conditions: 0.25 h; dosed: 678-39-7; 12 mg/kg; iv; Male; F344
[17] = tested on: Rat; assay: concentration in liver after dosing; conditions: 12 h; dosed: Fluorotelomer alcohol 8+2; 80 mg/kg; oral; Female; Harlan Sprague Dawley
[18] = tested on: Rat; assay: concentration in plasma after dosing; conditions: 5 min; dosed: 678-39-7; 12 mg/kg; iv; Male; F344
[19] = tested on: Rat; assay: concentration in liver after dosing; conditions: 12 h; dosed: Fluorotelomer alcohol 8+2; 24 mg/kg; oral; Male; Harlan Sprague Dawley
[20] = tested on: Rat; assay: concentration in liver after dosing; conditions: 3 h; dosed: Perfluorooctanoic acid; 12 mg/kg; oral; Male; Harlan Sprague Dawley
[21] = tested on: Rat; assay: concentration in liver after dosing; conditions: 3 h; dosed: Fluorotelomer alcohol 8+2; 24 mg/kg; oral; Male; Harlan Sprague Dawley
[22] = tested on: rat; assay: concentration in liver after dosing (ugEq/g tissue); conditions: dosed: benzo[a]pyrene, iv, male, Wistar
[23] = tested on: rat; assay: concentration in kidney after dosing (ugEq/g tissue); conditions: dosed: benzo[a]pyrene, iv, male, Wistar

O=S(=O)([O-])C(F)(F)C(F)(F)C(F)(F)C(F)(F)F.[K+] [Potassium Perfluorobutane Sulfonate]
Conditions	concentration in brain [ng/g]	concentration in kidney [ng/g]	concentration in plasma [ng/mL]
[1]	–	–	20200
[2]	–	–	1740
[3]	511	–	–
[4]	–	27100	–

O=N[O-] [Nitrite]
concentration in plasma [ng/mL]
Conditions	1 h	1.25 h	2 h	10 min
[5]	11200	–	12200	–
[6]	19000	–	8500	–
[7]	–	2000	–	15400

Conditions	concentration in plasma [ng/mL]
[8]	26600

COc1ccc(C(=O)c2ccccc2)c(O)c1 [2-Hydroxy-4-methoxybenzophenone]
Conditions	concentration in plasma [ng/mL]
[9]	81.6
[11]	14000

[10]
Conditions	concentration in plasma [ng/mL]
0.25 h	1950
2 h	84.6

O=C(O)C(F)(F)C(F)(F)C(F)(F)C(F)(F)C(F)(F)C(F)(F)C(F)(F)F [Perfluorooctanoic acid]
Conditions	concentration in kidney [ng/g]	concentration in liver [ng/g]	concentration in plasma [ng/mL]
[12]	175000	–	–
[14]	703	–	–
[15]	365	–	–
[16]	–	–	176
[17]	–	487	–
[18]	–	–	35.2
[19]	–	1700	–
[20]	–	41100	–
[21]	–	1440	–

[13]
Conditions	concentration in plasma [ng/mL]
0.25 h	204
6 h	438

c1ccc2c(c1)cc1ccc3cccc4ccc2c1c34 [benzo[a]pyrene]
Conditions	concentration in kidney, [23]	concentration in liver, [22]
0.5 h, 2 mg/kg	4.64	2.43
0.5 h, 6 mg/kg	7.09	11.4
0.5 h, 15 mg/kg	20.1	15.2
0.75 h, 2 mg/kg	4.02	1.34
0.75 h, 6 mg/kg	7.57	11.1
0.75 h, 15 mg/kg	16.8	13.1
1 h, 2 mg/kg	2.67	0.34
1 h, 6 mg/kg	6.12	5.54
1 h, 15 mg/kg	15.1	4.86
1.5 h, 2 mg/kg	1.31	0.91
1.5 h, 6 mg/kg	2.25	1.32
1.5 h, 15 mg/kg	13.6	8.51
2 h, 2 mg/kg	0.21	0.01
2 h, 6 mg/kg	0.8	0.55
2 h, 15 mg/kg	5.37	3.39
3 h, 2 mg/kg	0.23	–
3 h, 6 mg/kg	0.2	0.15
3 h, 15 mg/kg	1.77	0.72
4 h, 2 mg/kg	0.07	–
4 h, 6 mg/kg	0.15	0.09
4 h, 15 mg/kg	0.8	0.24
5 h, 2 mg/kg	0.06	–
5 h, 6 mg/kg	0.09	0.06
5 h, 15 mg/kg	0.36	0.14
5 min, 2 mg/kg	7	11.3
5 min, 6 mg/kg	12.4	31.2
5 min, 15 mg/kg	30.8	27.5
6 h, 2 mg/kg	0.08	–
6 h, 6 mg/kg	0.11	0.06
6 h, 15 mg/kg	0.35	0.16
8 h, 2 mg/kg	0.08	–
8 h, 6 mg/kg	0.09	0.02
8 h, 15 mg/kg	0.25	0.05
10 min, 2 mg/kg	7.09	6.52
10 min, 6 mg/kg	15.9	24.3
10 min, 15 mg/kg	25.2	29.8
20 min, 2 mg/kg	7.68	4.01
20 min, 6 mg/kg	11.7	16.1
20 min, 15 mg/kg	22.5	21.9
24 h, 6 mg/kg	–	0.01
24 h, 15 mg/kg	0.05	0.01
32 h, 6 mg/kg	–	0.02
32 h, 15 mg/kg	0.01	–
